Source: patent US10280179B2, “Spiroquinoxaline derivatives as inhibitors of non-apoptotic regulated cell-death” (Helmholtz Zentrum Munchen—Deutches Forschungszentrum Fur …, priority 2013, dated 2019)
pIC50: −log10 of the molar value.

Assays:
Assay type in all cases: cell-based
[1] = tested on: mouse hippocampal cell line (Ht22); experiment: Inhibition of glutamate-induced non-apoptotic cell death (Example B.2); settings: HT-22, Ht22 cells, glutamate-induced cell death, read-out: Ht22/GLU
Description: Inhibition of Glutamate-Induced Non-Apoptotic Cell Death by Compounds of the Present Invention
Glutamate toxicity is conferred on cells from the mouse hippocampal cell line (Ht22) by inhibition of the cysteine/glutamate antiporter, System xc-, leading to impaired cysteine uptake and subsequent GSH depletion. This model is frequently used for mimicking glutathione depletion following oxidative stress in stroke, brain trauma and other neurodegenerative diseases and cellular conditions following ischemia (for example: van Leyen et al, J. Neurochem. 92:824-30 (2005)).
Compounds disclosed herein were evaluated for their ability to promote cell survival upon administration of a lethal dose of glutamate (GLU) to the cell-culture medium.
Briefly, Ht22 cells (ATCC) were propagated DMEM supplemented with 10% FBS/1% Penicillin-Streptomycin, and then seeded onto 96-well plates at a concentration of 2,000 cells/well in 100 μL of MEDIA, simultaneously with glutamate (Sigma Aldrich) to a final concentration of 5 mM, together with increasing concentrations of the compound to be tested (0.5 pM to 100 μM), and the plates incubated at 37° C./5% CO2 for 72 hours. Compound dilutions were prepared from 10 mM stocks dissolved in DMSO and diluted in media. Cells treated with glutamate alone were used as negative control and alpha-tocopherol (Sigma Aldrich) was used as positive control. Compound concentrations were tested in triplicate. After incubation, cell survival was detected and quantified as described in Example B.1.

[2] = tested on: Pfa1 cells; experiment: Inhibition of non-apoptotic cell death after tamoxifen-induced GPx4 knockout in a recombinant cell line (Example B.4); settings: Mus musculus, read-out: Pfa1/TAM IC50
Description: Inhibition of Non-Apoptotic Cell-Death by Compounds Disclosed Herein Using a Recombinant Cell Line
To combat high intracellular ROS levels, mammalian cells have evolved an intricate network of ROS scavenging in cells, in which the thioredoxin and glutathione (GSH) dependent systems prevail. […] Knockout of GPx4 in neurons causes massive neurodegeneration in cortical, cerebellar and hippocampal neurons underscoring the high relevance of ROS-induced cell death signaling in the brain. Briefly, immortalised fibroblasts from these mice were made to contain tamoxifen-inducible CreERT2, which catalyzes the functional ablation of both copies of GPx4 and resulting in a complete knockout of GPx4, a massive ROS burst, and cell death in cell culture. These cells (Pfa1 cells) were used to characterize compounds of the present invention, whereby tamoxifen (TAM) was given on day 0 along with the compound under test, and 72 hours later cell survival was evaluated using AlamarBlue.

[3] = Cellular toxicity, same assay as Example B.4 without TAM (Example B.5); settings: mouse; Pfa1 cells without TAM; read-out: TC50 (the source's name)
Description: Cellular Toxicity of Compounds of the Invention
An estimate of the toxicity for compounds of the invention was obtained by using the same assay as described in Example B.4, but without the addition of TAM. […] Such TC50 values obtained for certain compounds disclosed herein, together with an approximate therapeutic window (estimated by dividing each TC50 by the corresponding IC50 determined from example B.4) are shown in Table 3.

SMILES	pIC50 [1]	pIC50 [2]	CC50 [3]
Clc1ccc(CNC2=Nc3ccccc3NC23CCCCC3)cc1 [C-3]	> 6.30	> 6.70	20 to 50 µM
Fc1cccc(CNC2=Nc3ccccc3NC23CCCCC3)c1 [C-5]	> 5.30	> 6.30	20 to 50 µM
Cc1cccc(CNC2=Nc3ccccc3NC23CCCCC3)c1 [C-11]	> 6.00	> 6.30	10 to 20 µM
FC(F)(F)c1cccc(CNC2=Nc3ccccc3NC23CCCCC3)c1 [C-23]	> 6.30	> 7.30	10 to 20 µM
COc1cccc(CNC2=Nc3ccccc3NC23CCCCC3)c1 [C-47]	> 6.00	> 6.30	20 to 50 µM
Fc1cc(Cl)ccc1CNC1=Nc2ccccc2NC12CCCCC2 [C-61]	> 6.30	> 6.70	20 to 50 µM
Clc1cccc(CCNC2=Nc3ccccc3NC23CCCCC3)c1 [C-79]	> 6.30	> 6.30	2 to 5 µM
Cc1cc2c(cc1C)NC1(CCCCC1)C(NCc1ccccc1)=N2 [C-218]	> 7.00	> 7.00	20 to 50 µM
c1ccc(CNC2=Nc3ccccc3NC23CCCC3)cc1 [C-219]	> 5.30	> 5.70	20 to 50 µM
Clc1ccc(CNC2=Nc3ccccc3NC23CCCCCC3)cc1 [C-220]	> 6.30	> 6.70	10 to 20 µM
c1ccc(CCCNC2=Nc3ccccc3NC23CCCCC3)cc1 [C-221]	> 6.00	> 6.00	5 to 10 µM
Fc1cccc(F)c1CNC1=Nc2ccccc2NC12CCCCC2 [C-222]	> 6.00	> 6.70	20 to 50 µM
COc1cccc(CNC2=Nc3ccccc3NC23CCCCCC3)c1 [C-224]	> 6.00	> 6.30	20 to 50 µM
Cc1cc(C)cc(CNC2=Nc3ccccc3NC23CCCCC3)c1 [C-225]	> 6.30	> 6.30	10 to 20 µM
c1ccc(CCNC2=Nc3ccccc3NC23CCCCC3)cc1 [C-226]	> 5.70	> 6.00	10 to 20 µM
c1ccc(C(CNC2=Nc3ccccc3NC23CCCCC3)c2ccccc2)cc1 [C-229]	> 6.00	> 6.70	2 to 5 µM
Clc1ccc(CNC2=Nc3ccccc3NC23CCCCC3)c(Cl)c1 [C-230]	> 6.30	> 7.00	20 to 50 µM
Fc1ccc(CNC2=Nc3ccccc3NC23CCCCC3)c(F)c1 [C-231]	> 6.00	> 6.30	20 to 50 µM
c1ccc(CCCCNC2=Nc3ccccc3NC23CCCCC3)cc1 [C-232]	> 6.00	> 5.70	20 to 50 µM
CC(CCc1ccccc1)NC1=Nc2ccccc2NC12CCCCC2 (stereo not drawn) [C-233]	> 6.00	> 6.00	20 to 50 µM
Clc1cccc(CNC2=Nc3cc(Cl)c(Cl)cc3NC23CCCCCC3)c1 [C-234]	> 6.30	> 6.30	20 to 50 µM
Clc1cc2c(cc1Cl)NC1(CCCCCC1)C(NCc1ccccc1)=N2 [C-235]	> 6.30	> 6.70	10 to 20 µM
c1ccc(CNC2=Nc3ccccc3NC23CCCCCCC3)cc1 [C-236]	> 6.30	> 6.30	10 to 20 µM
Clc1cc2c(cc1Cl)NC1(CCCCCCC1)C(NCc1ccccc1)=N2 [C-237]	> 6.30	> 6.30	10 to 20 µM
Fc1cc2c(cc1F)NC1(CCCCC1)C(NCc1ccccc1)=N2 [C-238]	> 6.70	> 6.30	20 to 50 µM
